Results from the SangsterLogP compilation.

What was measured:
[1] = method code SF, from DOI: 10.1002/tera.1420200312, PMID: 120615; details: pH 7.4

logP | logD [1] | Structure (SMILES)
3.86 |  | C=CCCCCCCCCC(=O)O
1.39 |  | CCCCC(=O)O
3.25 |  | O=C(Nc1ccccc1)c1ccccc1O
-0.46 |  | O=C(O)c1cccnc1
 | 3.92 | Cc1cc(O)c(C(C)C)cc1Cl
0.32 |  | CCC(=O)O
3.05 |  | CCCCCCCC(=O)O
 | 4.76 | CC/C(=C(/CC)c1ccc(O)cc1)c1ccc(O)cc1
4.2 |  | O=C(O)c1cc(I)cc(I)c1O

Structure (SMILES) | logP | logD [1]
Cc1ccccc1O |  | 1.93
Oc1ccc(Cl)cc1Cc1cc(Cl)ccc1O | 4.26 | 
